{"source": "patent US12605412B2", "about": "“Microbial compositions for improving the efficacy of anticancer treatments based on immune checkpoint inhibitors and/or tyrosine kinase inhibitors and markers of responsiveness to such treatments” (INSTITUT GUSTAVE ROUSSY, priority 2019, dated 2026)", "tested_on": "advanced renal cell carcinoma", "assay": "Clinical outcome of nivolumab (anti-PD-1) in RCC patients of the NIVOREN trial, stratified by antibiotic use", "assay_type": "in vivo, human", "description": "The patients were included from Gustave Roussy Cancer Campus, France. Inclusion criteria were patients with stage IV clear cell or non-clear cell RCC histology and disease progression during or after >1 prior anti-angiogenic therapy regimens who received nivolumab intravenously (i.v.) 3 mg/kg every 2 weeks until disease progression or intolerable toxicity in the NIVOREN GETUG-AFU 26 Phase II trial (EudraCT: 2015-004117-24) (Albiges et al., 2018). Computer tomography (CT) scans were performed at baseline and every 8 to 12 weeks for the first year and then every 12 to 15 weeks until disease progression. Tumor response was assessed using the Response Evaluation Criteria in Solid Tumors version 1.1 (RECIST v1.1) (Eisenhauer et al., 2009). […] We evaluated objective response rate defined as the number of patients with a complete response and a partial response. The best overall response was defined as the investigator-assessed best response (complete response, partial response, stable disease, or progressive disease) from the start date of nivolumab to objectively documented disease progression or subsequent therapy, whichever occurred first. […] Forty patients were analyzed in addition to 60 non-small cell lung cancer patients in the Science 2018 paper (Routy et al., 2018). […] For the first time, RCC were analyzed as a single and independent cohort in this paper. […]", "data": [{"substance": "nivolumab [ICB]", "values": [{"measurement": "objective response rate (ORR)", "setting": "RCC patients on nivolumab, noATB subgroup, RECIST v1.1", "value": 28, "unit": "%"}, {"measurement": "primary resistance", "setting": "no ATB subgroup during ICB therapy", "value": 33, "unit": "%"}]}]}
